Source: US8168642B2, “Dihydropyrimidine compounds and their uses in preparation of medicaments for treating and preventing antiviral diseases” (Beijing Molecule Science and Technology Co., Ltd., priority 2006, dated 2012)

Legend:
HBV DNA = test: Antiviral activity: inhibition of HBV DNA in supernatant of HepG 2.2.15 cells (dot blot hybridization); format: cell-based; conditions: Hepatitis B virus, HepG2.2.15, 192 h, 8 days incubation, HB-specific DNA in supernatant, read-out: IC50 (inhibitory effect on HBV DNA)
Description: The antiviral effect of the compound of the present invention is determined according to the methods described by Sells, et al (M. A. Sells, M. L. Chen, G. Proc. Natl. Acad. Sci. 1987, 84, 1005-1009) and Korba, et al (B. E. Korba, J. L. Gerin Antiviral Research 1992, 19, 55-70).
(§1) The antiviral test was carried out in a 96-cell microtiter plate. The first column of the plate only contained a culture medium and HepG 2.2.15 cells, as a blank control.
(§2) First, a stock solution ([…]) of a test compound was dissolved in DMSO, and further diluted with a culture medium for growth of HepG 2.2.15 cells. Usually, the compound of the present invention was transferred by suction at a test concentration of 100 μg/ml (the first test concentration) to each cell of the second column of the microtiter plate, and then diluted with the culture medium for growth plus 2% fetal bovine serum (25 μL), by 2 times once, up to 2^10 times at the maximum.
(§3) Then, 225 μL of a suspension of HepG 2.2.15 cells in the culture medium for growth plus 2% fetal bovine serum (5×10^4 cells/ml) was added to each cell of the 96-cell microtiter plate.
(§4) The test mixture was incubated under the conditions of 37° C., 5% CO2 for 4 days. Then, the supernatant was removed by suction, and to each cell 225 μL of a new-prepared culture medium for growth was added. Again, the compound of the present invention was added with a solution of 25 μL. The obtained mixture was further incubated for 4 days.
Thereafter, the supernatant was collected, and sucked in vacuum to a 96-cell dot blot chamber covered by nylon film (used in accordance with the instructions for use provided by the manufacturer).
Determination of Antiviral Activity
After the supernatant was transferred onto the nylon film of the dot blot device (see the contents hereinabove), the supernatant of HepG 2.2.15 cells was denaturated (1.5 M NaCl/0.5 M NaOH), neutralized (3 M NaCl/0.5 M Tris. HCl, pH 7.5) and washed (2×SSC). Then, the filter film was kept at 120° C. for 2-4 hours, whereby DNA was baked on the filter film.
Usually, viral DNA of HepG 2.2.15 cells treated on the nylon film was detected by using a non-radioactive digoxigenin labeled HB-specific DNA probe. Wherein, each time the probe was labeled with digoxigenin, purified and hybridized according to the directions for use given by the manufacturer.
Briefly, pre-hybridization and hybridization were conducted with 5×SSC, 1× blocking agent, 0.1% N-lauroyl sarcosine, 0.02% SDS and 100 μg sperm DNA of black carp. After pre-hybridization at 60° C. for 30 min, a specific hybridization (at 60° C. for 14 hr) was conducted with 20-40 ng/ml digoxigenin labeled denaturalized HBV specific DNA. Then, the film was washed, followed by HBV DNA detection with digoxigenin antibody.
The immunology detection of digoxigenin labeled DNA was conducted according to the directions for use given by the manufacturer.
Briefly speaking, the film was washed and pre-hybridized with a blocking agent (in accordance with the directions for use given by the manufacturer), and then hybridized with an anti-DIG antibody that had been previously coupled onto an alkaline phosphatase for 30 min. After washing, an alkaline phosphatase substrate CSPD was added, and cultured together with the filter for 5 min, and then wrapped in a plastic film, followed by further culturing at 37° C. for 15 min. The filter was exposed to X-ray, and the chemical luminous signal (culturing for 10 min to 2 hr according to the signal strength) of HB-specific DNA on the film was detected, whereby a half inhibitory concentration (IC50) was calculated.
The half inhibitory concentration (IC50) refers to the concentration of the compound of the present invention which reduces the HB-specific band by 50% as compared with the untreated sample.

HepG 2.2.15 cells = test: Cytotoxicity in HepG 2.2.15 cells (cell morphology under microscope after 8 days, Reed&Muench); format: cell-based; conditions: pathological change of cells after 8 days
Description: as §1, §2, §3, §4
Prior to collection of the supernatant for determination of the antiviral effect, the change in cytotoxicity of HepG 2.2.15 cells was investigated by using optical microscopic technique or biochemical detection method (e.g., Alamar Blue staining or Trypan Blue staining).
Determination of Cytotoxicity
The substance-induced change in cytotoxicity in HepG 2.2.15 cells or in inhibition of the cells could be determined by using, e.g., optical microscopic technique, and expressed by the change of cell morphology. Such substance-induced changes, e.g., cell lysis, cavity formation or change in cell morphology, in HepG 2.2.15 cells were apparent as compared to the untreated cells.
Taking the observed pathological change of cells as index, the pathological change of cells was observed under microscope after 8 days, a complete destroy being indicated as 4; 75% being indicated as 3; 50% being indicated as 2; 25% being indicated as 1; and no pathological change being indicated as 0. The average extents of pathological change of cells and the inhibition percentages at various concentrations were calculated. According to Reed&Muench method, a half toxic concentration (TC50) and a maximum non-toxic concentration (TC0) were calculated.
TC50 refers to the concentration of the compound of the present invention when 50% of cells have a similar morphology to the corresponding cells as a control.

Row | SMILES | IC50 (HBV DNA) | TD50 (HepG 2.2.15 cells) | melting point
1 | CCOC(=O)C1=C(C)NC(c2nccn2Cc2ccccc2)=NC1c1ccc(F)cc1 (stereo not drawn) [Example 51, ethyl 2-(N-benzyl-1H-imidazol-2-yl)-4-(4-fluorophenyl)-6-methyl-1,4-dihydro-pyrimidin-5-carboxylate] | 6.65 µM | 36.87 µM | 162 to 164 °C
2 | CCOC(=O)C1=C(C)NC(c2cncs2)=NC1c1ccc(F)cc1Cl (stereo not drawn) [Example 42, ethyl 2-(thiazol-5-yl)-4-(2-chloro-4-fluorophenyl)-6-methyl-1,4-dihydro-pyrimidin-5-carboxylate] | 3.61 µM | >32.90 µM | 121 to 125 °C
3 | COC(=O)C1=C(C)NC(c2c(F)cccc2F)=NC1c1ccc(F)cc1Cl (stereo not drawn) [Example 55, methyl 2-(2,6-difluorophenyl)-4-(2-chloro-4-fluorophenyl)-6-methyl-1,4-dihydro-pyrimidin-5-carboxylate] | 4.01 µM | 60.84 µM | 126 to 128 °C
4 | CCOC(=O)C1=C(C)NC(c2nccn2C)=NC1c1ccc(F)cc1Cl (stereo not drawn) [Example 49, ethyl 2-(N-methyl-1H-imidazol-2-yl)-4-(2-chloro-4-fluorophenyl)-6-methyl-1,4-dihydro-pyrimidin-5-carboxylate] | 0.27 µM | 38.83 µM | 166 to 167 °C
5 | CCOC(=O)C1=C(C)NC(c2c(F)cc(F)cc2F)=NC1c1ccc(F)cc1Cl (stereo not drawn) [Example 58, ethyl 2-(2,4,6-trifluorophenyl)-4-(2-chloro-4-fluorophenyl)-6-methyl-1,4-dihydro-pyrimidin-5-carboxylate] | 2.6 µM | 32.50 µM | 184 to 186 °C
6 | CCOC(=O)C1=C(C)NC(c2sc(C)nc2C)=NC1c1ccc(F)cc1Cl (stereo not drawn) [Example 40, ethyl 2-(2,4-dimethylthiazol-5-yl)-4-(2-chloro-4-fluorophenyl)-6-methyl-1,4-dihydro-pyrimidin-5-carboxylate] | 2.59 µM | 157.42 µM | 117 to 119 °C
7 | COC(=O)C1=C(C)NC(c2sc(C)nc2C)=NC1c1ccc(F)cc1Cl (stereo not drawn) [Example 39, methyl 2-(2,4-dimethylthiazol-5-yl)-4-(2-chloro-4-fluorophenyl)-6-methyl-1,4-dihydro-pyrimidin-5-carboxylate] | 3.2 µM | 165.90 µM | 116 to 118 °C
8 | CCOC(=O)C1=C(C)NC(c2nccn2C)=NC1c1ccc(F)cc1 (stereo not drawn) [Example 53, ethyl 2-(N-methyl-1H-imidazol-2-yl)-4-(4-fluorophenyl)-6-methyl-1,4-dihydro-pyrimidin-5-carboxylate] | 10.2 µM | 281.14 µM | 134 to 136 °C
9 | CCOC(=O)C1=C(C)NC(c2csc(Cl)n2)=NC1c1ccc(F)cc1Cl (stereo not drawn) [Example 33, ethyl 2-(2-chlorothiazol-4-yl)-4-(2-chloro-4-fluorophenyl)-6-methyl-1,4-dihydro-pyrimidin-5-carboxylate] | 0.87 µM | 7.17 µM | 141 to 143 °C
10 | CCOC(=O)C1=C(C)NC(c2cscn2)=NC1c1ccc(F)cc1Cl (stereo not drawn) [Example 1, ethyl 2-(thiazol-4-yl)-4-(2-chloro-4-fluorophenyl)-6-methyl-1,4-dihydro-pyrimidin-5-carboxylate] | 3.35 µM | 50.59 µM | 140 to 142 °C
